Data reported in the NIST ThermoML archive (doi:10.1021/je900428g).
Where “and” joins values, the source holds several entries; their conditions need not be identical. Equal entries are not always repeated.

Details: Fluid (supercritical or subcritical phases), Spherical resonator

[Ar] [argon]
Details | speed of sound
250 K, 53.7 kPa | 294.48 m/s
250 K, 198 kPa | 294.47 m/s
250 K, 329.4 kPa | 294.47 m/s
250 K, 2365.8 kPa | 294.8 m/s
250 K, 4652.9 kPa | 296.36 m/s
250 K, 5823 kPa | 297.76 m/s
250.16 K, 48.7 kPa | 294.57 m/s
250.16 K, 48.8 kPa | 294.58 m/s
250.16 K, 192 kPa | 294.57 m/s
250.16 K, 309.1 kPa | 294.57 m/s
250.16 K, 447.7 kPa | 294.56 m/s and 294.57 m/s
250.16 K, 598.6 kPa | 294.56 m/s and 294.57 m/s
250.16 K, 732.5 kPa | 294.56 m/s and 294.58 m/s
250.16 K, 875.6 kPa | 294.58 m/s
250.16 K, 1401.1 kPa | 294.62 m/s and 294.65 m/s
260 K, 198.6 kPa | 300.35 m/s
260 K, 327.3 kPa | 300.37 m/s
260 K, 3507.5 kPa | 301.95 m/s
260 K, 4624 kPa | 303.04 m/s
260 K, 6602.3 kPa | 305.84 m/s
270 K, 53.2 kPa | 306.06 m/s
270 K, 200 kPa | 306.11 m/s
270 K, 325.8 kPa | 306.15 m/s
270 K, 467.2 kPa | 306.2 m/s
270 K, 3521.8 kPa | 308.29 m/s
270 K, 4675.9 kPa | 309.59 m/s
270 K, 5775.2 kPa | 311.12 m/s
275.1 K, 47.6 kPa | 308.94 m/s
275.1 K, 206.8 kPa | 309.01 m/s
275.1 K, 206.9 kPa | 309.01 m/s
275.1 K, 384.3 kPa | 309.09 m/s and 309.1 m/s
275.1 K, 547.4 kPa | 309.17 m/s and 309.18 m/s
275.1 K, 591.7 kPa | 309.2 m/s
275.1 K, 706.2 kPa | 309.25 m/s and 309.26 m/s
275.1 K, 733.8 kPa | 309.27 m/s and 309.28 m/s
275.1 K, 860.2 kPa | 309.34 m/s and 309.33 m/s and 309.35 m/s
275.1 K, 860.3 kPa | 309.35 m/s
275.1 K, 1389.2 kPa | 309.65 m/s
275.1 K, 1389.3 kPa | 309.67 m/s
280 K, 200.1 kPa | 311.76 m/s
280 K, 328.3 kPa | 311.83 m/s
280 K, 2342.8 kPa | 313.26 m/s
280 K, 4647.9 kPa | 315.83 m/s
280 K, 5767 kPa | 317.48 m/s
280 K, 6610.3 kPa | 318.94 m/s
280.12 K, 99.1 kPa | 311.77 m/s
280.12 K, 305.2 kPa | 311.87 m/s
280.12 K, 307.7 kPa | 311.89 m/s
280.12 K, 529.4 kPa | 312 m/s
280.12 K, 531.1 kPa | 312.01 m/s
280.12 K, 745.8 kPa | 312.13 m/s
280.12 K, 748 kPa | 312.14 m/s
280.12 K, 962.4 kPa | 312.27 m/s
280.12 K, 964.6 kPa | 312.28 m/s
280.12 K, 1184.9 kPa | 312.42 m/s
280.12 K, 1396.4 kPa | 312.58 m/s
280.12 K, 1396.8 kPa | 312.57 m/s
280.12 K, 1601.7 kPa | 312.72 m/s
280.12 K, 1834.4 kPa | 312.91 m/s
290 K, 53.6 kPa | 317.2 m/s
290 K, 196.4 kPa | 317.3 m/s
290 K, 1191.6 kPa | 318.04 m/s
290 K, 2325 kPa | 319.08 m/s
290 K, 3477.8 kPa | 320.36 m/s
300 K, 30.5 kPa | 322.62 m/s
300 K, 183.8 kPa | 322.74 m/s
300 K, 308.3 kPa | 322.84 m/s
300 K, 1180.9 kPa | 323.61 m/s
300 K, 2331.5 kPa | 324.81 m/s
300 K, 4657.3 kPa | 327.88 m/s
300 K, 5832.9 kPa | 329.8 m/s
300 K, 6595.8 kPa | 331.21 m/s
300.11 K, 100.3 kPa | 322.73 m/s
300.11 K, 244.7 kPa | 322.85 m/s
300.11 K, 395.4 kPa | 322.98 m/s
300.11 K, 528 kPa | 323.11 m/s
300.11 K, 558.1 kPa | 323.12 m/s
300.11 K, 701.6 kPa | 323.24 m/s
300.11 K, 739.1 kPa | 323.3 m/s
300.11 K, 868 kPa | 323.39 m/s
300.11 K, 963 kPa | 323.5 m/s
300.11 K, 1011.7 kPa | 323.53 m/s
300.11 K, 1166.1 kPa | 323.69 m/s
300.11 K, 1618 kPa | 324.14 m/s
300.11 K, 1836.4 kPa | 324.37 m/s
300.12 K, 48.1 kPa | 322.69 m/s
300.12 K, 193 kPa | 322.81 m/s
300.12 K, 308.1 kPa | 322.91 m/s
300.12 K, 445.5 kPa | 323.02 m/s and 323.03 m/s
300.12 K, 729.9 kPa | 323.27 m/s and 323.28 m/s
300.12 K, 868.1 kPa | 323.39 m/s
300.12 K, 868.2 kPa | 323.4 m/s and 323.41 m/s
300.12 K, 1378.6 kPa | 323.87 m/s and 323.89 m/s
310 K, 104.7 kPa | 328.02 m/s
310 K, 198.6 kPa | 328.11 m/s
310 K, 329.2 kPa | 328.23 m/s
310 K, 463.4 kPa | 328.35 m/s
310 K, 2330.1 kPa | 330.38 m/s
310 K, 4624.6 kPa | 333.59 m/s
310 K, 6595.8 kPa | 337.02 m/s
320 K, 102 kPa | 333.28 m/s
320 K, 180.5 kPa | 333.35 m/s
320 K, 311 kPa | 333.48 m/s
320 K, 450.5 kPa | 333.63 m/s
320 K, 576.4 kPa | 333.77 m/s and 333.79 m/s
320 K, 1053.9 kPa | 334.3 m/s and 334.32 m/s
320 K, 1550.8 kPa | 334.89 m/s and 334.9 m/s
320 K, 2333.1 kPa | 335.85 m/s
320 K, 4482.2 kPa | 339 m/s
320 K, 5819.9 kPa | 341.24 m/s
325.05 K, 48.1 kPa | 335.83 m/s
325.05 K, 192.9 kPa | 336 m/s and 335.99 m/s
325.05 K, 314.5 kPa | 336.13 m/s
325.05 K, 438.6 kPa | 336.27 m/s
325.05 K, 592.7 kPa | 336.44 m/s
325.05 K, 736 kPa | 336.6 m/s
325.05 K, 870.8 kPa | 336.76 m/s
325.05 K, 1376.5 kPa | 337.36 m/s
325.05 K, 1376.6 kPa | 337.37 m/s
325.05 K, 2721.4 kPa | 339.14 m/s
349.87 K, 48.9 kPa | 348.43 m/s and 348.44 m/s
349.87 K, 182.8 kPa | 348.62 m/s
349.87 K, 182.9 kPa | 348.61 m/s
349.87 K, 307.3 kPa | 348.77 m/s and 348.78 m/s
349.87 K, 447 kPa | 348.95 m/s and 348.97 m/s
349.87 K, 594.5 kPa | 349.14 m/s
349.87 K, 726.7 kPa | 349.32 m/s and 349.34 m/s
349.87 K, 864.5 kPa | 349.5 m/s
349.87 K, 864.6 kPa | 349.52 m/s
349.87 K, 1397.7 kPa | 350.24 m/s and 350.26 m/s
349.87 K, 2711.2 kPa | 352.19 m/s
